# Source: publication PMC2363616, “Mapping the HLA-A24-restricted T-cell epitope peptide from a tumour-associated antigen HER2 / neu: possible immunotherapy for colorectal carcinomas” (British Journal of Cancer, 2001)
# System: CD8+ T cells of HLA-A24 healthy donors
# Test: Primary CTL induction with peptide-pulsed autologous DCs, cytotoxicity tested on peptide-pulsed TISI
# Assay type: cell-based, human
# Settings: data not shown
smiles,measurement,value
CC(C)C[C@H](NC(=O)[C@H](CC(C)C)NC(=O)[C@H](C)NC(=O)[C@H](CC(C)C)NC(=O)[C@H](CC(C)C)NC(=O)[C@H](CC(C)C)NC(=O)CNC(=O)[C@H](Cc1c[nH]c2ccccc12)NC(=O)[C@@H](N)CCCNC(=N)N)C(=O)O [HE1],CTL induction activity (cytotoxicity of peptide-stimulated CTLs against the peptide-pulsed TISI),showed the cytotoxicity against the peptide- pulsed TISI
